Assays:
Assay in all cases: Ambit kinase profiling, competition binding
PHKG1 = target: T1, PHKG1 (Homo sapiens, UniProt Q16816); settings: compound concentration 10 uM, read-out: Percent Competition
T1 construct: purchased Ambit Biosciences (KINOMEscan)
From the text: (§1) Supplement pone.0044653.s004.xls, sheet "Compound 122" | column: Percent Competition

LTK = target: T2, LTK (Homo sapiens, UniProt P29376); settings: compound concentration 10 uM, read-out: Percent Competition
T2 construct: purchased Ambit Biosciences (KINOMEscan)
From the text: as §1

PKN2 = target: T3, PKN2 (Homo sapiens, UniProt Q16513); settings: compound concentration 10 uM, read-out: Percent Competition
T3 construct: purchased Ambit Biosciences (KINOMEscan)
From the text: as §1

MARK3 = target: T4, MARK3 (Homo sapiens, UniProt P27448); settings: compound concentration 10 uM, read-out: Percent Competition
T4 construct: purchased Ambit Biosciences (KINOMEscan)
From the text: as §1

STK33 = target: T5, STK33 (Homo sapiens, UniProt Q9BYT3); settings: compound concentration 10 uM, read-out: Percent Competition
T5 construct: purchased Ambit Biosciences (KINOMEscan)
From the text: as §1

ACVR2A = target: T6, ACVR2A (Homo sapiens, UniProt P27037); settings: compound concentration 10 uM, read-out: Percent Competition
T6 construct: purchased Ambit Biosciences (KINOMEscan)
From the text: as §1

PIK3CB = target: T7, PIK3CB (Homo sapiens, UniProt P42338); settings: compound concentration 10 uM, read-out: Percent Competition
T7 construct: purchased Ambit Biosciences (KINOMEscan)
From the text: as §1

TXK = target: T8, TXK (Homo sapiens, UniProt P42681); settings: compound concentration 10 uM, read-out: Percent Competition
T8 construct: purchased Ambit Biosciences (KINOMEscan)
From the text: as §1

PKN1 = target: T9, PKN1 (Homo sapiens, UniProt Q16512); settings: compound concentration 10 uM, read-out: Percent Competition
T9 construct: purchased Ambit Biosciences (KINOMEscan)
From the text: as §1

VEGFR2 = target: T10, VEGFR2 (Homo sapiens, UniProt P35968); settings: compound concentration 10 uM, read-out: Percent Competition
T10 construct: purchased Ambit Biosciences (KINOMEscan)
From the text: as §1

AXL = target: T11, AXL (Homo sapiens, UniProt P30530); settings: compound concentration 10 uM, read-out: Percent Competition
T11 construct: purchased Ambit Biosciences (KINOMEscan)
From the text: as §1

TYRO3 = target: T12, TYRO3 (Homo sapiens, UniProt Q06418); settings: compound concentration 10 uM, read-out: Percent Competition
T12 construct: purchased Ambit Biosciences (KINOMEscan)
From the text: as §1

PRKG2 = target: T13, PRKG2 (Homo sapiens, UniProt Q13237); settings: compound concentration 10 uM, read-out: Percent Competition
T13 construct: purchased Ambit Biosciences (KINOMEscan)
From the text: as §1

ASK1 = target: T14, ASK1 (Homo sapiens, UniProt Q99683); settings: compound concentration 10 uM, read-out: Percent Competition
T14 construct: purchased Ambit Biosciences (KINOMEscan)
From the text: as §1

CSNK2A2 = target: T15, CSNK2A2 (Homo sapiens, UniProt P19784); settings: compound concentration 10 uM, read-out: Percent Competition
T15 construct: purchased Ambit Biosciences (KINOMEscan)
From the text: as §1

RET(V804L) = target: T16, RET(V804L) (Homo sapiens, UniProt P07949, V804L); settings: compound concentration 10 uM, read-out: Percent Competition
T16 construct: purchased Ambit Biosciences (KINOMEscan)
From the text: as §1

TSSK1B = target: T17, TSSK1B (Homo sapiens, UniProt Q9BXA7); settings: compound concentration 10 uM, read-out: Percent Competition
T17 construct: purchased Ambit Biosciences (KINOMEscan)
From the text: as §1

MAP4K3 = target: T18, MAP4K3 (Homo sapiens, UniProt Q8IVH8); settings: compound concentration 10 uM
T18 construct: purchased Ambit Biosciences (KINOMEscan)
From the text: as §1

CDK9 = target: T19, CDK9 (Homo sapiens, UniProt P50750); settings: compound concentration 10 uM, read-out: Percent Competition
T19 construct: purchased Ambit Biosciences (KINOMEscan)
From the text: as §1

NEK9 = target: T20, NEK9 (Homo sapiens, UniProt Q8TD19); settings: compound concentration 10 uM, read-out: Percent Competition
T20 construct: purchased Ambit Biosciences (KINOMEscan)
From the text: as §1

DAPK3 = target: T21, DAPK3 (Homo sapiens, UniProt O43293); settings: compound concentration 10 uM, read-out: Percent Competition
T21 construct: purchased Ambit Biosciences (KINOMEscan)
From the text: as §1

CHEK2 = target: T22, CHEK2 (Homo sapiens, UniProt O96017); settings: compound concentration 10 uM, read-out: Percent Competition
T22 construct: purchased Ambit Biosciences (KINOMEscan)
From the text: as §1

PIK3CA(E545K) = target: T23, PIK3CA(E545K) (Homo sapiens, UniProt P42336, E545K); settings: compound concentration 10 uM, read-out: Percent Competition
T23 construct: purchased Ambit Biosciences (KINOMEscan)
From the text: as §1

ABL2 = target: T24, ABL2 (Homo sapiens, UniProt P42684); settings: compound concentration 10 uM, read-out: Percent Competition
T24 construct: purchased Ambit Biosciences (KINOMEscan)
From the text: as §1

MST1R = target: T25, MST1R (Homo sapiens, UniProt Q04912); settings: compound concentration 10 uM, read-out: Percent Competition
T25 construct: purchased Ambit Biosciences (KINOMEscan)
From the text: as §1

ABL1(Y253F) = target: T26, ABL1(Y253F) (Homo sapiens, UniProt P00519, Y253F); settings: compound concentration 10 uM, read-out: Percent Competition
T26 construct: purchased Ambit Biosciences (KINOMEscan)
From the text: as §1

ABL1(H396P) = target: T27, ABL1(H396P) (Homo sapiens, UniProt P00519, H396P); settings: compound concentration 10 uM, read-out: Percent Competition
T27 construct: purchased Ambit Biosciences (KINOMEscan)
From the text: as §1

SgK085 = target: T28, SgK085 (Homo sapiens, UniProt Q86YV6); settings: compound concentration 10 uM, read-out: Percent Competition
T28 construct: purchased Ambit Biosciences (KINOMEscan)
From the text: as §1

CLK3 = target: T29, CLK3 (Homo sapiens, UniProt P49761); settings: compound concentration 10 uM, read-out: Percent Competition
T29 construct: purchased Ambit Biosciences (KINOMEscan)
From the text: as §1

TRKC = target: T30, TRKC (Homo sapiens, UniProt Q16288); settings: compound concentration 10 uM, read-out: Percent Competition
T30 construct: purchased Ambit Biosciences (KINOMEscan)
From the text: as §1

BMPR1A = target: T31, BMPR1A (Homo sapiens, UniProt P36894); settings: compound concentration 10 uM, read-out: Percent Competition
T31 construct: purchased Ambit Biosciences (KINOMEscan)
From the text: as §1

PDGFRA = target: T32, PDGFRA (Homo sapiens, UniProt P16234); settings: compound concentration 10 uM, read-out: Percent Competition
T32 construct: purchased Ambit Biosciences (KINOMEscan)
From the text: as §1

TEC = target: T33, TEC (Homo sapiens, UniProt P42680); settings: compound concentration 10 uM, read-out: Percent Competition
T33 construct: purchased Ambit Biosciences (KINOMEscan)
From the text: as §1

IKK-epsilon = target: T34, IKK-epsilon (Homo sapiens, UniProt Q14164); settings: compound concentration 10 uM, read-out: Percent Competition
T34 construct: purchased Ambit Biosciences (KINOMEscan)
From the text: as §1

AKT3 = target: T35, AKT3 (Homo sapiens, UniProt Q9Y243); settings: compound concentration 10 uM, read-out: Percent Competition
T35 construct: purchased Ambit Biosciences (KINOMEscan)
From the text: as §1

TRKB = target: T36, TRKB (Homo sapiens, UniProt Q16620); settings: compound concentration 10 uM, read-out: Percent Competition
T36 construct: purchased Ambit Biosciences (KINOMEscan)
From the text: as §1

TESK1 = target: T37, TESK1 (Homo sapiens, UniProt Q15569); settings: compound concentration 10 uM, read-out: Percent Competition
T37 construct: purchased Ambit Biosciences (KINOMEscan)
From the text: as §1

SRPK2 = target: T38, SRPK2 (Homo sapiens, UniProt P78362); settings: compound concentration 10 uM, read-out: Percent Competition
T38 construct: purchased Ambit Biosciences (KINOMEscan)
From the text: as §1

PIK3CA = target: T39, PIK3CA (Homo sapiens, UniProt P42336); settings: compound concentration 10 uM, read-out: Percent Competition
T39 construct: purchased Ambit Biosciences (KINOMEscan)
From the text: as §1

ZAK = target: T40, ZAK (Homo sapiens, UniProt Q9NYL2); settings: compound concentration 10 uM, read-out: Percent Competition
T40 construct: purchased Ambit Biosciences (KINOMEscan)
From the text: as §1

SRPK3 = target: T41, SRPK3 (Homo sapiens, UniProt Q9UPE1); settings: compound concentration 10 uM, read-out: Percent Competition
T41 construct: purchased Ambit Biosciences (KINOMEscan)
From the text: as §1

SIK2 = target: T42, SIK2 (Homo sapiens, UniProt Q9H0K1); settings: compound concentration 10 uM, read-out: Percent Competition
T42 construct: purchased Ambit Biosciences (KINOMEscan)
From the text: as §1

**Q.** Which results are given for `Fc1ccc(-c2c(-c3ccncc3)[nH]c3nccnc23)cc1` [RO1155697-000-005]?
**A.** inhibition at 10 µM (PHKG1): < 50%; inhibition at 10 µM (LTK): < 50%; inhibition at 10 µM (PKN2): < 50%; inhibition at 10 µM (MARK3): < 50%; inhibition at 10 µM (STK33): < 50%; inhibition at 10 µM (ACVR2A): < 50%; inhibition at 10 µM (PIK3CB): < 50%; inhibition at 10 µM (TXK): < 50%; inhibition at 10 µM (PKN1): < 50%; inhibition at 10 µM (VEGFR2): < 50%; inhibition at 10 µM (AXL): < 50%; inhibition at 10 µM (TYRO3): < 50%; inhibition at 10 µM (PRKG2): < 50%; inhibition at 10 µM (ASK1): < 50%; inhibition at 10 µM (CSNK2A2): < 50%; inhibition at 10 µM (RET(V804L)): < 50%; inhibition at 10 µM (TSSK1B): < 50%; Percent Competition (MAP4K3): <50%; inhibition at 10 µM (CDK9): < 50%; inhibition at 10 µM (NEK9): < 50%; inhibition at 10 µM (DAPK3): < 50%; inhibition at 10 µM (CHEK2): < 50%; inhibition at 10 µM (PIK3CA(E545K)): < 50%; inhibition at 10 µM (ABL2): < 50%; inhibition at 10 µM (MST1R): < 50%; inhibition at 10 µM (ABL1(Y253F)): < 50%; inhibition at 10 µM (ABL1(H396P)): < 50%; inhibition at 10 µM (SgK085): < 50%; inhibition at 10 µM (CLK3): < 50%; inhibition at 10 µM (TRKC): < 50%; inhibition at 10 µM (BMPR1A): < 50%; inhibition at 10 µM (PDGFRA): < 50%; inhibition at 10 µM (TEC): < 50%; inhibition at 10 µM (IKK-epsilon): < 50%; inhibition at 10 µM (AKT3): < 50%; inhibition at 10 µM (TRKB): < 50%; inhibition at 10 µM (TESK1): < 50%; inhibition at 10 µM (SRPK2): < 50%; inhibition at 10 µM (PIK3CA): < 50%; inhibition at 10 µM (ZAK): < 50%; inhibition at 10 µM (SRPK3): < 50%; inhibition at 10 µM (SIK2): < 50%
